Data published in PMC9518286, “Design, synthesis, biological evaluation and molecular docking study of 2,4-diarylimidazoles and 2,4-bis(benzyloxy)-5-arylpyrimidines as novel HSP90 N-terminal inhibitors” (Journal of Enzyme Inhibition and Medicinal Chemistry, 2022).

Assays:
HSP90α [1] = target: T1, HSP90α (Homo sapiens, UniProt P07900); assay: biochemical; design: fluorescence polarisation competition with FITC-labelled geldanamycin on HSP90α N-terminal domain (BPS kit 50293); conditions: read-out: FP IC50
T1 construct: gene HSP90AA1; N-terminal domain
Method: The binding affinity for HSP90α was evaluated using a commercially available Hsp90α N-terminal domain assay kit (Catalogue: #50293, BPS Bioscience, CA, USA). According to the manufacturer’s instructions, 5x HSP90 assay buffer (5 μL), 40 mM dithiothreitol (5 μL), 2 mg/mL BSA (5 μL), and H2O (40 μL) were sequentially added to each well. After the addition of diluted FITC-labelled geldanamycin solution (100 nM, 5 μL), compounds at different concentrations (10 μM, 1.0 μM, 0.1 μM, 0.01 μM) were added. The reaction was initiated by the addition of 20 μL of Hsp90α (17 ng/μL). After 2 h of incubation with slow shaking at room temperature, the fluorescent polarisation was measured using Synergy H1 (BioTek Instruments, Inc.). The excitation and emission wavelengths were 485 nm and 530 nm, respectively. IC50 values were calculated based on the signal changes in the FP competition assay. The experiments were performed in triplicate. To further verify the binding of the synthesised compounds to the HSP90 N-terminus, the binding affinity of five typical compounds (16j, 16l, 16m, 22k, and 22l) was evaluated using an FP assay. The addition of compounds with HSP90 inhibitory capacity into the assay would compete with the fluorescence probe for binding into HSP90, resulting in a decrease in FP in comparison with the probe alone.

HSP90α [2] = target: T1, HSP90α; assay: fluorescence polarisation competition with FITC-geldanamycin (BPS kit #[…]); format: binding

SMILES | IC50 (HSP90α [1]) [nM] | IC50 (HSP90α [2]) [nM]
Cc1ccc(-c2cn(Cc3ccccc3)c(-c3ccc(Cl)cc3)n2)cc1 [16j, 1-Benzyl-2–(4-chlorophenyl)-4-(p-tolyl)-1H-imidazole] | 610 ± 30 | 
Clc1ccc(-c2cn(Cc3ccccc3)c(-c3ccc(Cl)cc3)n2)cc1 [16l, 1-Benzyl-2,4-bis(4-chlorophenyl)-1H-imidazole] | 570 ± 60 | 
Clc1ccc(-c2nc(-c3cccc(Cl)c3)cn2Cc2ccccc2)cc1 [16m, 1-Benzyl-4–(3-chlorophenyl)-2–(4-chlorophenyl)-1H-imidazole] | 620 ± 110 | 

Now from value to compound:

IC50 (HSP90α [1]) [nM] | IC50 (HSP90α [2]) [nM] | SMILES
 | 210 ± 30 | Oc1ccc(-c2cnc(OCc3ccccc3)nc2OCc2ccccc2)cc1 [22k, 4–(2,4-Bis(benzyloxy)pyrimidin-5-yl)phenol]
580 ± 110 |  | Oc1cccc(-c2cnc(OCc3ccccc3)nc2OCc2ccccc2)c1 [22l, 3–(2,4-Bis(benzyloxy)pyrimidin-5-yl)phenol]
